Test results from US5830770A, “Hapten-protein conjugates for use in detection of organophosphorus compounds” (priority 1993, dated 1998).

Assays:
Format in all cases: binding
Rabbit 20 antisera = assay: Competitive/inhibition ELISA, antisera preincubated with OP for 2 hours, plate coated with 400 μg/ml OP-Ova; details: 2 hours at 25° C.
Protocol: (§1) An ELISA was used to screen the antisera for polyclonal antibodies to the generic hapten/conjugate of the invention using the following protocol. Microtitre plates (Costar) were coated with the appropriate hapten conjugate with ovalbumin by diluting that in 0.05M sodium hydrogen carbonate/sodium carbonate buffer (pH 9.6) to give an optimum protein concentration of 1 μg/ml previously determined by chequerboard titration; protein found by Bradford assay. 100 μl was added to each microtitre plate well and the plates placed in a moist chamber overnight, washed 3 times with 0.15 phosphate buffered saline pH7.2 with 0.05% Tween 20[RTM]: PBST), and blotted dry. Blocking was carried out by adding 250 μl per well of 5% skimmed milk for 1 hour at 25° C.
(§2) After two further washings the coated microplates were stored at -20° C. until required, whereon they were washed once with PBST. Antisera were diluted (1/1000 for general screening or doubling dilutions up to 1/512,000 for titration assays) in PSBT, applied to microtitre wells in triplicate in 50 μl amounts and incubated in a moist chamber at 25° C. for 1 hour (appropriate positive and negative controls were included--PBST, negative rabbit serum and positive serum when it had been produced). Wells were then washed 3 times in PBST and 200 μl of a 1:1500 dilution of swine anti-rabbit immunoglobulin conjugated to horseradish peroxidase (DAKO) was added to each well. Plates were incubated once more for 1 hour at 25° C. then washed 3 times with PBST.
(§3) Tetramethylbenzidine (TMB) enzyme substrate solution was prepared by adding 400 μl of 6.0 g/l TMB in DMSO to 24.5 ml of 0.1M sodium acetate buffer pH5.5 with 100 μl of 1% H2 O2 and 100 μl added to the wells. The microplates were incubated for 15 minutes in the dark at 25° C. before the reaction was stopped by adding 50 μl of 2.5M H2 SO4 and the absorbance read at 450 nm against air. Results: are given below with those of Example 6.
(§4) This assay was carried out in the same manner as that of Example 5 with the following modifications. After plate coating the various dilutions of antisera were incubated with various concentrations of analyte solution for 1 to 2 hours at 25° C. or overnight at 4° C. Antiserum dilutions tested were 1/1000, 1/2000, 1/5000 and 1/10000 and the concentrations of the analyte ranged from 200 to 0.001 μg/ml. Coating of generic hapten-ovalbumin was at 1 μg/ml and later other coating strengths were tested ranging from 400 to 12.5 ng/ml. Note: cross reactivity in all cases was checked by carrying out an indirect ELISA where plates were coated with the blocking agents or BSA or ovalbumin at 1 μg/ml. Skimmed milk, foetal calf serum (both 5%), caesin (0.3%) or fish skin gelatin (0.5%) were selected as the blocking agent in this regard. Use of competitive assay is preferred for determining cross-reactivity.
(§5) 400 to 0.012 μg/ml conjugate for 200 to 0.001 μg/ml analyte detection.

antisera from rabbit 20 = assay: Competitive/inhibition ELISA, antisera pre-incubated with unconjugated OP, 1 μg/ml OP-Ova; details: 1 hour at 25° C.
Protocol: as §1, §2, §3, §4, §5

antisera from rabbit 19 = assay: as above; details: 1 hour at 25° C.
Protocol: as §1, §2, §3, §4, §5

antisera from rabbit 21 = assay: as above; details: 1 hour at 25° C.
Protocol: as §1, §2, §3, §4, §5

COP(=S)(OC)OCCCCO [OP]
absorbance after preincubation with OP (Rabbit 20 antisera; antisera 1/1000, OP conc 0.001): 1.38
absorbance after preincubation with OP (Rabbit 20 antisera; antisera 1/1000, OP conc 0.01): 1.58
absorbance after preincubation with OP (Rabbit 20 antisera; antisera 1/1000, OP conc 0.1): 1.48
absorbance after preincubation with OP (Rabbit 20 antisera; antisera 1/1000, OP conc 1.0): 1.24
absorbance after preincubation with OP (Rabbit 20 antisera; antisera 1/1000, OP conc 10.0): 0.94
absorbance after preincubation with OP (Rabbit 20 antisera; antisera 1/1000, OP conc 20.0): 0.87
absorbance after preincubation with OP (Rabbit 20 antisera; antisera 1/1000, OP conc 100.0): 0.82
absorbance after preincubation with OP (Rabbit 20 antisera; antisera 1/1000, OP conc 200.0): 0.89
absorbance after preincubation with OP (Rabbit 20 antisera; antisera 1/2000, OP conc 0.001): 1.10
absorbance after preincubation with OP (Rabbit 20 antisera; antisera 1/2000, OP conc 0.01): 1.11
absorbance after preincubation with OP (Rabbit 20 antisera; antisera 1/2000, OP conc 0.1): 1.04
absorbance after preincubation with OP (Rabbit 20 antisera; antisera 1/2000, OP conc 1.0): 0.87
absorbance after preincubation with OP (Rabbit 20 antisera; antisera 1/2000, OP conc 10.0): 0.74
absorbance after preincubation with OP (Rabbit 20 antisera; antisera 1/2000, OP conc 20.0): 0.67
absorbance after preincubation with OP (Rabbit 20 antisera; antisera 1/2000, OP conc 100.0): 0.67
absorbance after preincubation with OP (Rabbit 20 antisera; antisera 1/2000, OP conc 200.0): 0.69
absorbance after pre-incubation with OP (antisera from rabbit 20; OP 0.01 μg/ml): 1.95
absorbance after pre-incubation with OP (antisera from rabbit 20; OP 0.1 μg/ml): 1.95
absorbance after pre-incubation with OP (antisera from rabbit 20; OP 0.4 μg/ml): 1.81
absorbance after pre-incubation with OP (antisera from rabbit 20; OP 3.1 μg/ml): 1.54
absorbance after pre-incubation with OP (antisera from rabbit 20; OP 12.5 μg/ml): 1.31
absorbance after pre-incubation with OP (antisera from rabbit 20; OP 50.0 μg/ml): 1.19
absorbance after pre-incubation with OP (antisera from rabbit 19; OP 0.01 μg/ml): 1.83
absorbance after pre-incubation with OP (antisera from rabbit 19; OP 0.1 μg/ml): 1.73
absorbance after pre-incubation with OP (antisera from rabbit 19; OP 0.4 μg/ml): 1.66
absorbance after pre-incubation with OP (antisera from rabbit 19; OP 3.1 μg/ml): 1.50
absorbance after pre-incubation with OP (antisera from rabbit 19; OP 12.5 μg/ml): 1.36
absorbance after pre-incubation with OP (antisera from rabbit 19; OP 50.0 μg/ml): 1.34
absorbance after pre-incubation with OP (antisera from rabbit 21; OP 0.01 μg/ml): 1.52
absorbance after pre-incubation with OP (antisera from rabbit 21; OP 0.1 μg/ml): 1.42
absorbance after pre-incubation with OP (antisera from rabbit 21; OP 0.4 μg/ml): 1.45
absorbance after pre-incubation with OP (antisera from rabbit 21; OP 3.1 μg/ml): 1.34
absorbance after pre-incubation with OP (antisera from rabbit 21; OP 12.5 μg/ml): 1.02
absorbance after pre-incubation with OP (antisera from rabbit 21; OP 50.0 μg/ml): 1.24
